How the values were obtained:
[1] = molecular target: Serine/threonine-protein kinase PLK2 (Homo sapiens, UniProt Q9NYY3); experiment: Selectivity interaction (KinomeScan (DiscoverX)) EUB0000229b PLK2; settings: at 10 µM
[2] = molecular target: T1, Activin receptor type-1 (Homo sapiens) (UniProt Q04771); experiment: Selectivity interaction (KinomeScan (DiscoverX)) EUB0000595a ACVR1; settings: at 10 µM
T1 sequence (whole entry): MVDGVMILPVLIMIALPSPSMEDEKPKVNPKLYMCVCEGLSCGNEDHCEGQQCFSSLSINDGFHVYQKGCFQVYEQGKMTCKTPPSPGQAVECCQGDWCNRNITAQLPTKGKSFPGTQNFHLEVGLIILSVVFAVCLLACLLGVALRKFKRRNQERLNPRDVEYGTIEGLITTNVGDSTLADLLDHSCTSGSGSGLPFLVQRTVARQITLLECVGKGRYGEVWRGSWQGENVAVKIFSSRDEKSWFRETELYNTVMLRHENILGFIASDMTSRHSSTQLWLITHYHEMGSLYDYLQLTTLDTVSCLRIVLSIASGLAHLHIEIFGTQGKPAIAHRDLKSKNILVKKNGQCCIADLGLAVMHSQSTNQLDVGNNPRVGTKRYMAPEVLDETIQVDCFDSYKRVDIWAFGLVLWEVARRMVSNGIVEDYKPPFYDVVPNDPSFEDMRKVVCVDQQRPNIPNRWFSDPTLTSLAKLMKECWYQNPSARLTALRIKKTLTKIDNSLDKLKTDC

[3] = molecular target: T2, Peripheral plasma membrane protein CASK (Homo sapiens) (UniProt O14936); settings: at 10 µM
T2 sequence (whole entry): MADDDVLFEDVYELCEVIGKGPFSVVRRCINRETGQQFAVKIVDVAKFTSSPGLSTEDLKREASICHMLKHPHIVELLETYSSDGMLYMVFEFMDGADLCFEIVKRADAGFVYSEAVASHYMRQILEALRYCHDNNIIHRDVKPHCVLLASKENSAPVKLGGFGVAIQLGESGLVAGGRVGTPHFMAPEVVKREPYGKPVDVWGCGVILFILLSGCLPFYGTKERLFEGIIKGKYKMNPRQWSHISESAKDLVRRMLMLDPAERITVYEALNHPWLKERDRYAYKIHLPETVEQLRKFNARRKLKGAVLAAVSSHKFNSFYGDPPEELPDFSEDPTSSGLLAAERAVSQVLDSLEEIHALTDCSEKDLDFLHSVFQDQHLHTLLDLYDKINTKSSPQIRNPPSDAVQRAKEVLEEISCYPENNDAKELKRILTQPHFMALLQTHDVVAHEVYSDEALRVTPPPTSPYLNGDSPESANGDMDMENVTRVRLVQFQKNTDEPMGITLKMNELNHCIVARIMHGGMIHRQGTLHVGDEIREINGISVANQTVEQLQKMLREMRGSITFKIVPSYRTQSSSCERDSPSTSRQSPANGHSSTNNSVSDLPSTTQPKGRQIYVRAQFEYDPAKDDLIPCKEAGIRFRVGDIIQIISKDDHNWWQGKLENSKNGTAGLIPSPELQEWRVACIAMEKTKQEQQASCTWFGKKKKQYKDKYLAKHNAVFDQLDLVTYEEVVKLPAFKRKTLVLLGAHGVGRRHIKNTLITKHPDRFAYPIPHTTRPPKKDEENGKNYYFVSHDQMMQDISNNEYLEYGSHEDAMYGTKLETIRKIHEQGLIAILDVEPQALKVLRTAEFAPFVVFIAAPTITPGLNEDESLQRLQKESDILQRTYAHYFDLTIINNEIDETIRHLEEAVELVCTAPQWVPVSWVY

[4] = molecular target: Mitogen-activated protein kinase 14 (Homo sapiens, UniProt Q16539); experiment: Selectivity interaction (Kinase panel (33PanQinase(R) Activity Assay)) EUB0000877a MAPK14
Chain of Mitogen-activated protein kinase 14 (Q16539 whole entry): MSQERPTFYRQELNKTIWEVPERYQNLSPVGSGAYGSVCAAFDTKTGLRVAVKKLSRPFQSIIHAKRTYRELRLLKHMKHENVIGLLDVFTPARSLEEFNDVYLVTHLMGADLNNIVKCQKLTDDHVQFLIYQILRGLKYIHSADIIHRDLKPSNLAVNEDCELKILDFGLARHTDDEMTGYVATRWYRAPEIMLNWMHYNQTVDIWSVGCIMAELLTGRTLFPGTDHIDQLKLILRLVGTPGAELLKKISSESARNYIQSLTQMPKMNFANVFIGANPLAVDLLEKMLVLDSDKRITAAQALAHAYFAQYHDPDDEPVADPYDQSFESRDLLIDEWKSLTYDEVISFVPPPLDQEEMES

[5] = molecular target: Serine/threonine-protein kinase Nek7 (Homo sapiens) (UniProt Q8TDX7); experiment: Selectivity interaction (ActivX KiNativ screen (ex vivo kinase selectivity in human PBMCs)) EUB0001619a NEK7; type: cell-based; settings: PBMC, at 1 µM
Chain of Serine/threonine-protein kinase Nek7 (Homo sapiens) (Q8TDX7 whole entry, looked up): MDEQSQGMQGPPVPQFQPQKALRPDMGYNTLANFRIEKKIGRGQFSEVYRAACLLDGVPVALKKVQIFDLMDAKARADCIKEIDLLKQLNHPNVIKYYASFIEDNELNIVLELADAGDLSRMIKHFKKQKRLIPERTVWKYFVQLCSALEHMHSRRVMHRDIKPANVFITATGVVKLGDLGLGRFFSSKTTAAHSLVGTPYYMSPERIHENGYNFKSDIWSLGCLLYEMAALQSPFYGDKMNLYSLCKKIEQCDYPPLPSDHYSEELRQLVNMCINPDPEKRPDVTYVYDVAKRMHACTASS

[6] = molecular target: Activin receptor type-2B (Homo sapiens) (UniProt Q13705); experiment: Selectivity interaction (Kinase panel (Invitrogen)) EUB0000639a ACVR2B; settings: at 200 nM
Chain of Activin receptor type-2B (Homo sapiens) (Q13705 whole entry): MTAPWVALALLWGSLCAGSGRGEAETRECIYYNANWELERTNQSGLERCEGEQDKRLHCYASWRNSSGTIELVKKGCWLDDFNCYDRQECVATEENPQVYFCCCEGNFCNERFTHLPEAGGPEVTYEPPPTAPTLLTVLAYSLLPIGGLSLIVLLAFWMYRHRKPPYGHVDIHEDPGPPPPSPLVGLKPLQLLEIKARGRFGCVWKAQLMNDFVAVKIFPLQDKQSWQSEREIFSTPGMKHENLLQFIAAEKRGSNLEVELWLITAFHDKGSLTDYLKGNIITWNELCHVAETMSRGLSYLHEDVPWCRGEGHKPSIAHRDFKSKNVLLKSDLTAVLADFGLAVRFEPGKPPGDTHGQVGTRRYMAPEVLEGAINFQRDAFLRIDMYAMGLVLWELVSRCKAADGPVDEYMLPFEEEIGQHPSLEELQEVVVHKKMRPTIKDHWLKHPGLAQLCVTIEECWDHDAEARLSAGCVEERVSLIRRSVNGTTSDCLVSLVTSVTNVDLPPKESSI

[7] = molecular target: T3, Serine/threonine-protein kinase LATS1 (Homo sapiens) (UniProt O95835); experiment: Selectivity interaction (KinomeScan (DiscoverX)) EUB0000655a LATS1; settings: at 10 µM
T3 sequence (whole entry): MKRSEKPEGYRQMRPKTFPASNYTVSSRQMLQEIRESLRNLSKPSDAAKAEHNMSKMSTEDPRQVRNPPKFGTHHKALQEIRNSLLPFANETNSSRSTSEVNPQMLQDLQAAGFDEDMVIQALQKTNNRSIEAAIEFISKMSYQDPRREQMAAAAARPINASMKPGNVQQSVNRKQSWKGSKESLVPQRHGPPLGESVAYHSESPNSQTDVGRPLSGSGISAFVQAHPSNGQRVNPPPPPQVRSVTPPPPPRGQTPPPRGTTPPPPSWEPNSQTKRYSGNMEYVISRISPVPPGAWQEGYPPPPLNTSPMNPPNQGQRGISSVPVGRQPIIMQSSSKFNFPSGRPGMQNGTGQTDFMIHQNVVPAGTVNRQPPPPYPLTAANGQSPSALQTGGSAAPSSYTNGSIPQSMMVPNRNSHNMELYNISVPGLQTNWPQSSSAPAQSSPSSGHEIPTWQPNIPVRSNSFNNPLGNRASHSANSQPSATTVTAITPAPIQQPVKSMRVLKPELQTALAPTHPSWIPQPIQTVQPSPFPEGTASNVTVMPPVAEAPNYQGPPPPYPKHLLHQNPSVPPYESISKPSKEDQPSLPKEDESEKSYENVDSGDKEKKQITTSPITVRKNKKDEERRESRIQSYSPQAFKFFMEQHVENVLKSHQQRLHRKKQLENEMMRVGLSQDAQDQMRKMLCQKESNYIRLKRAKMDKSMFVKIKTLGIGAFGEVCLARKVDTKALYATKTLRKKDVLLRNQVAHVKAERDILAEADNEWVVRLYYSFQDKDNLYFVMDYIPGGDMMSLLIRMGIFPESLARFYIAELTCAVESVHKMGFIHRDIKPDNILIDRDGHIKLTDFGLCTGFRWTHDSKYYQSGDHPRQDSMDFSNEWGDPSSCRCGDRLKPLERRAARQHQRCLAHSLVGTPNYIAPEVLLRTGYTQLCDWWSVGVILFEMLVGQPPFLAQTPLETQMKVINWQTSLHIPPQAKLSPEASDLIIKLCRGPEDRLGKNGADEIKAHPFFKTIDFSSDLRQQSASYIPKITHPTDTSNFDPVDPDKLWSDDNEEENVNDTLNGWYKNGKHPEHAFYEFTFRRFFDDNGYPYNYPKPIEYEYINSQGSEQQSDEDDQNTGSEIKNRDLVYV

[8] = molecular target: Ribosomal protein S6 kinase alpha-1 (Homo sapiens, UniProt Q15418); experiment: Selectivity interaction (KinomeScan (DiscoverX)) EUB0000655a RPS6KA1; settings: at 10 µM
Chain of Ribosomal protein S6 kinase alpha-1 (Q15418 whole entry): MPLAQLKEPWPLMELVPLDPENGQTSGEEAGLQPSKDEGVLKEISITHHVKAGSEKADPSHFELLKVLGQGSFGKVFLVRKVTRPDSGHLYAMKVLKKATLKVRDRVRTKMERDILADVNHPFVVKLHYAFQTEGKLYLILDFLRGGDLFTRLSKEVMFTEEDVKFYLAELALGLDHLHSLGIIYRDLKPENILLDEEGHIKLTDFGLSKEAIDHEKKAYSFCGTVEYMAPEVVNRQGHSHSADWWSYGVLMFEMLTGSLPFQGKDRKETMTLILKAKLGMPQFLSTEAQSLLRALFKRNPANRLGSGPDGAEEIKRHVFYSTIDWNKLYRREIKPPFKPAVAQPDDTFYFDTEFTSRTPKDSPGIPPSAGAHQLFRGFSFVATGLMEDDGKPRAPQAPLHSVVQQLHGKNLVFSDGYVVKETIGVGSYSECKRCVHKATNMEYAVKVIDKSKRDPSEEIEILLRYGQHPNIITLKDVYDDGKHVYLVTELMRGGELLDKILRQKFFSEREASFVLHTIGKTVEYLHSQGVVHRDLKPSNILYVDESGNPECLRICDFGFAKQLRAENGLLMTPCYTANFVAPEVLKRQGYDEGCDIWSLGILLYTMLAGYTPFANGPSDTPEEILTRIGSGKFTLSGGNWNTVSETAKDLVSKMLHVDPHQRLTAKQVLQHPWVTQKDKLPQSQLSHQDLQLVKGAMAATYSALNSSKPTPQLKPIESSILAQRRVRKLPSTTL

Chain of Serine/threonine-protein kinase PLK2 (Q9NYY3 whole entry, looked up): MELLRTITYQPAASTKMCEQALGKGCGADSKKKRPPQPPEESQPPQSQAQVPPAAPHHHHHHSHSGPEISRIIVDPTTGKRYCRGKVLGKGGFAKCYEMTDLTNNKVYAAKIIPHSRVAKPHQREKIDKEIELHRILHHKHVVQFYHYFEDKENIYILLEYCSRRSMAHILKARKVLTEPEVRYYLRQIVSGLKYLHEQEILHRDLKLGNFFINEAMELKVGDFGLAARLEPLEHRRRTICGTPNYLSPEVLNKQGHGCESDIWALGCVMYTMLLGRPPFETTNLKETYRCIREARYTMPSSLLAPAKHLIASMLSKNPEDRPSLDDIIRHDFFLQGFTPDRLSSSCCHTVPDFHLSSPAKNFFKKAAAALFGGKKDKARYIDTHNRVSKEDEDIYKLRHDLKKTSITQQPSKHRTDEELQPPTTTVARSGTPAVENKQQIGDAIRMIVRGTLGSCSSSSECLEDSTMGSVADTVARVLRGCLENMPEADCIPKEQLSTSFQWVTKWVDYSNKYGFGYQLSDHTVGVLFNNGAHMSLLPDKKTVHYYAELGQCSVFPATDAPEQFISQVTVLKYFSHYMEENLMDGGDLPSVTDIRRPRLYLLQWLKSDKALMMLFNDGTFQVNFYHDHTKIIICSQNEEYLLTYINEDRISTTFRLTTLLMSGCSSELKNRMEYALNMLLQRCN

COc1cc(N(C)c2ccnc3ccc(C(F)(F)F)cc23)cc(OC)c1OC
% binding [1]: 88%

COCC(=O)NC/C=C/c1ccc2ncnc(Nc3ccc(Oc4ccc(C)nc4)c(C)c3)c2c1 [CP-724714]
% of control [2]: 90%

Cc1cc([C@@H](C)Nc2ccccc2C(=O)O)c2nc(N3CCOCC3)cc(=O)n2c1 [AZD-6482]
% of control [3]: 92%

CCC(=O)N1CC[C@H](Nc2ncnc3c2CN(c2cnc(OC)c(C(F)(F)F)c2)CC3)C1 [LENIOLISIB]
IC50 [4]: > 10 µM

N#Cc1cccc(-c2c[nH]c3ncnc(N4CCOCC4)c23)c1
% of inhibition [5]: -5%

CC[C@@H]1[C@H](F)C(=O)N[C@@H]1COc1nccc2cc(C(N)=O)c(OC)cc12 [ZIMLOVISERTIB]
% of inhibition [6]: 5.32%

CN(C)CCOc1ccc(-c2nc(-c3ccncc3)c(-c3ccc4c(c3)CC/C4=N\O)[nH]2)cc1
% of control [7]: 87% | % of control [8]: 81%
